Results on three compounds are retold here after patent publication US8673913B2, “SHP-2 phosphatase inhibitor” (Case Western Reserve University, priority 2009, dated 2014).

In series [1] the target is T1, SHP-2 PTP domain GST fusion protein (Homo sapiens, UniProt Q06124).
T1 sequence (Q06124 247-517 limits assumed): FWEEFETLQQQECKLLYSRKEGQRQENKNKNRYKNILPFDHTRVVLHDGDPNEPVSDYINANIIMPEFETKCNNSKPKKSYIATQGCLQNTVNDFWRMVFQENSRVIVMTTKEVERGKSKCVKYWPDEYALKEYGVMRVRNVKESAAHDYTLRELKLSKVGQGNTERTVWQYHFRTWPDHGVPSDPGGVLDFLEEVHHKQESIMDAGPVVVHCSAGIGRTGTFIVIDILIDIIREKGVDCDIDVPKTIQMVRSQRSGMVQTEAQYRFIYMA
As to the kind of experiment: in vitro protein tyrosine phosphatase assay, SHP-2 (Malachite Green). Format: biochemical. Also on record: SHP-2 PTP domain GST fusion protein purified in house was used as the enzyme; made in house. The note with it: for inhibition at 100 µM: compound at 100 μM, read-out: inhibition of SHP-2 enzymatic activity. The source says: (§1) Candidate compounds were screened using the in vitro protein tyrosine phosphatase (PTP) assay kit (Sigma, St. Lois, Mo.). SHP-2 PTP domain GST fusion protein purified in house was used as the enzyme and a phospho-peptide corresponding to the surrounding sequence of pTyr^1146 in the insulin receptor (Thr-Arg-Asp-Ile-Tyr[PO3H2]-Glu-Thr-Asp-Tyr-Tyr) were used as the substrate. The assay determines free phosphate generated by dephosphorylation of the PTP substrate using the Malachite Green reagent. Briefly, 0.5 μg of GST-SHP-2 PTP was incubated in 40 μL assay buffer (25 mM Tris-HCl, PH7.4, 50 mM NaCl, 5 mM DTT, and 2.5 mM EDTA) with test compounds at various concentrations or DMSO at room temperature for 30 min. The PTP substrate was then added to a final concentration of 0.2 mM. The system was incubated at 30° C. for 30 min. Finally, 50 μl of Malachite Green solution was added and OD620 was measured after 5 min. In the phosphatase assays for SHP-1, CD45, TC-PTP, PTP-MEG2 (PTPN9), and LAR (PTPRF), procedures were similar, with the exception that GST-SHP-1, GST-CD45 cytoplasmic domain, GST-TC-PTP, GST-PTP-MEG2 PTP domain, and GST-LAR PTP domain purchased from Biomol International, L.P. (Plymouth Meeting, Pa.) were used instead as the enzymes.
Candidate compounds identified by CADD were screened by the in vitro tyrosine phosphatase assay as described in the Experimental Section. The GST-SHP-2 PTP domain fusion protein was incubated with the compounds at room temperature for 30 min before the phospho-peptide substrate was added to the assay systems, allowing compounds to bind to target sites in SHP-2. Each test compound was dissolved in DMSO. Initial concentration of the test compounds was 100 μM. In the experimental assay, DMSO was included as the negative control and sodium orthovanadate (100 μM), a general non-specific tyrosine phosphatase inhibitor, was used as the positive control. From the 165 commercially available compounds tested, we identified 9 compounds that inhibit SHP-2 catalytic activity with various efficiencies (FIG. 3A). […] The inhibitory effects of the compounds were dose-dependent.

Series [2] has as its target T2, GST-SHP-1 (Homo sapiens, UniProt P29350).
T2 construct: purchased Biomol International, L.P. (Plymouth Meeting, Pa.)
As to the kind of experiment: in vitro phosphatase assay, SHP-1. Format: biochemical. To be noted: for functional specificity SHP-2 vs. SHP-1: phosphatase assays at the indicated concentrations.
Description: as §1

The target of series [3] is T3, GST-TC-PTP (Homo sapiens, UniProt P17706).
T3 construct: purchased Biomol International, L.P. (Plymouth Meeting, Pa.)
T3 sequence (P17706 1-415): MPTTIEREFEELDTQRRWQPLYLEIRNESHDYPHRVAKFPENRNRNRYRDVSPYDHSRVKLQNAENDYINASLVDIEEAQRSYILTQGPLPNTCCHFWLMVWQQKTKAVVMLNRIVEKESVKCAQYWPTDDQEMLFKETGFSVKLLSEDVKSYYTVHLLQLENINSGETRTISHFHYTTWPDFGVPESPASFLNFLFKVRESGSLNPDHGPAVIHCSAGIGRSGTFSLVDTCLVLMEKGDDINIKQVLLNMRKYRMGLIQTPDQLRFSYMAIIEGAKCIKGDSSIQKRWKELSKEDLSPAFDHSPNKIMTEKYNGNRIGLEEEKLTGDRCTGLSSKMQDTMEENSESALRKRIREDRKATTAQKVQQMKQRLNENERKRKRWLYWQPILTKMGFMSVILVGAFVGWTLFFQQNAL
In words: in vitro phosphatase assay, TC-PTP. Format: biochemical. The note with it: for inhibition of TC-PTP: FIG. 4. On the procedure: as §1, with “SHP-2 PTP domain GST fusion protein purified in house was used as the enzyme and a phospho-peptide corresponding to the surrounding sequence of pTyr^1146 in the insulin receptor (Thr-Arg-Asp-Ile-Tyr[PO3H2]-Glu-Thr-Asp-Tyr-Tyr) were used as the substrate.” left out

Series [4] concerns Ba/F3 cells. In words: Ba/F3 cell proliferation assay (IL-3, MTS). The format is cell-based, murine. On the procedure:
To test the effects of the active compounds on IL-3-induced cellular response, Ba/F3, an IL-3 dependent murine pro-B lymphoma cell line, was used for the assay. Ba/F3 cells were seeded into 96-well plates (2×10^4 cells/well) in the RPMI-1640 medium supplemented with 10% fetal bovine serum (FBS), recombinant mouse IL-3 (1 ng/mL), and test compounds ([…]). Three days later, cell number was determined using the MTS cell proliferation kit (Promega Life Science, Madison, Wis.).
To test the effects of the active compounds on SHP-2-mediated cellular proliferation, Ba/F3, an IL-3 dependent hematopoietic cell line, mouse embryonic fibroblasts (MEFs), and H661 lung cancer cell line with SHP-2 activating mutation N58S were used for the assays. Cells were seeded into 96-well plates (2×10^4 cells/well) in the RPMI-1640 (for Ba/F3 cells) or DMEM (for MEFs and H661 cells) medium supplemented with 10% fetal bovine serum (FBS) and test compounds at various concentrations. For the Ba/F3 cell assay, recombinant mouse IL-3 (1 ng/mL) was included in the culture medium. Two days later, cell number was determined using the MTS cell proliferation kit (Promega Life Science, Madison, Wis.).

T2 sequence (P29350 whole entry): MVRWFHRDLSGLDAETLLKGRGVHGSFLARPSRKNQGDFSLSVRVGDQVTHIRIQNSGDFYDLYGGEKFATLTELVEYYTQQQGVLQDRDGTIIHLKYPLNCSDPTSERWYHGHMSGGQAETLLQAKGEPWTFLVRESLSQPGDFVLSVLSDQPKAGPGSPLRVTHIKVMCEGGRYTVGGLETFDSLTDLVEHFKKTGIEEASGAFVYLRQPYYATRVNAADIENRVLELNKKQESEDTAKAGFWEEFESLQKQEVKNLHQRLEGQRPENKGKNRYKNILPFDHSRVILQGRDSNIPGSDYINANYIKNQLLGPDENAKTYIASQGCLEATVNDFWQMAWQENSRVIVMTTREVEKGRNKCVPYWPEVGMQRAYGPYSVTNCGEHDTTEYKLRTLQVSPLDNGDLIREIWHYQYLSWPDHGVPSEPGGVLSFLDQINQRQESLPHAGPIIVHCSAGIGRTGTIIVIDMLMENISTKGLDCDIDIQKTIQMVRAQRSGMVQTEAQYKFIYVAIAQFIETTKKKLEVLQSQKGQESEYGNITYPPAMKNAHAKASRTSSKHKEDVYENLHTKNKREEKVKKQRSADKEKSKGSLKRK

Regarding `NS(=O)(=O)c1ccc(CCNC(=O)c2ccc(Cn3c(=S)[nH]c4ccc(Br)cc4c3=O)cc2)cc1` [#216], the inhibition at 100 µM in series [1] turned out to be 55%. For the same compound, the “functional specificity SHP-2 vs. SHP-1” value in series [2] is listed as “selectively inhibited SHP-2 vs. SHP-1”. Besides, in series [3], the “inhibition of TC-PTP” value is “slight inhibition”. For the same compound, the IL-3-stimulated cell growth entry in series [4] (100 or 200 μM, IL-3 1 ng/mL, 72 hours) is “greatly decreased”.
Consider `Cc1cc(C)c2c(c1)[nH]c1nnc(SCC(=O)NCc3cccs3)nc12` [#220], for which the inhibition at 100 µM in series [1] is 50%. The “functional specificity SHP-2 vs. SHP-1” value in series [2] was “selectively inhibited SHP-2 vs. SHP-1”. In addition, the “inhibition of TC-PTP” value in series [3] is on record as “slight inhibition”. Further, the acute cytotoxicity entry in series [4] is given as “modest acute cytotoxicity”.
With `Cc1cc(C)c2[nH]c3nc(SCC(=O)Nc4cccc5ccccc45)nnc3c2c1` [#324], the “selectivity for SHP-2 compared to other PTPases” value in series [1] (Table 1 and FIG. 10) is on record as “selectively inhibits SHP-2 compared to other PTPases”. In addition, the half-maximal inhibitory concentration (IC50) is 13.9 µM in series [1] (read-out: IC50 SHP2), 37.7 µM in series [2] (read-out: IC50 SHP1) and 39.9 µM in series [3]. The “functional specificity SHP-2 vs. SHP-1” value in series [2] is given as “high functional specificity for SHP-2 over SHP-1”. Moreover, the “SHP-2 mediated proliferative response to IL-3” value in series [4] (IL-3 1 ng/mL, 48 hours) was “inhibit”.
